According to patent US20040167229A1, “Method of lowering CRP and reducing systemic inflammation” (priority 2002, published 2004):
Marks after values point to notes of the source that are not given here.

What was measured:
[1] = test system: proinflammatory cytokine induced CRP production by human hepatoma cell line PLC/PRF/5; experiment: CRP production by cytokine stimulated human hepatoma PLC/PRF/5 cells, CRP ELISA of cell media (Example 16); format: cell-based; settings: 10 ng/ml IL-6, 1 ng/ml IL-1, 1 μM dexamethasone, 24 hours, FIG. 1
Excerpt: As noted above dialkyl ethers are useful for inhibiting proinflammatory cytokine induced CRP production. Studies have shown that the acute phase response can be recapitulated in cultured human hepatoma cells stimulated with the pro-inflammatory cytokines IL-6 and IL-1 in the presence of the corticosteroid Dexamethasone (Lozanski G, Berthier F, and Kushner I, 1997; Biochem J. 328:271-275). Using a similar hepatoma cell system we evaluated the effect 6,6′-oxybis(2,2-dimethylhexanoic acid) on CRP production by cytokine stimulated human hepatoma PLC/PRF/5 cells. […]
CRP protein concentrations were determined using a CRP ELISA Kit (Alpha Diagnostic International, Inc. San Antonio, Tex. USA (Cat. No.1000)). […] At the end of this incubation a 50 μl stop solution (as described by the manufacturer of the CRP kit) was added to each well and the plate was used to measure absorbance at 450 nm in a Spectra Max Plus, Molecular Devices spectrophotometer.
A CRP standard curve (in ng/ml) was generated by determining 450 nm absorbance values for different amounts of a standard CRP solution, provided by the vendor of the CRP kit, and correcting these values by subtracting the 450 nm absorbance of zero CRP control samples. CRP determinations in experimental samples was done as follows: 10 μl cell media samples in duplicates or triplicates were used to determine 450 nm absorbance. […]

CRP [2] = experiment: Randomized, double-blind, placebo-controlled dose-response study in patients with HDL-C <35 mg/dL, 12 weeks; CRP by high sensitivity immunonephelometry (Example 15); format: in vivo, human; settings: for levels of CRP reduced by: 900 mg/day; for % change in CRP levels from base line: median percent change
Procedure: As noted above, the dialkyl ethers of this invention are useful for lowering plasma CRP levels. The ability of a dialkylether to lower plasma CRP levels was determined using in vivo studies routinely utilized by those skilled in the art.
A randomized, double-blind, placebo-controlled, parallel group, dose-response, multicenter study was conducted at 11 centers in the United States and one center in Canada. Eligible patients with HDL-C level<35 mg/dL (0.9 mmol/L) were selected following a 6-week, single-blind placebo, dietary lead in period conducted according to National Cholesterol Education Program (NCEP) Step 1 Diet. The NCEP Step 1 Diet guidelines are as follows:
Eligible patients with HDL-C level<35 mg/dL (0.9 mmol/L) were stratified according to whether mean serum TG level measured at both 2 and 4 weeks prior to randomization was <200 mg/dL (2.3 mmol/L) or ≧200 mg/dL (2.3 mmol/L). Within each TG stratum, patients were randomized to receive either 150, 300, 600, or 900 mg of 6,6′-oxybis(2,2-dimethylhexanoic acid) calcium saltor placebo daily (QD) for 12 weeks.
Eligible patients were women of non-childbearing potential (naturally postmenopausal or surgically sterilized) or men 18 to 80 years of age with a baseline HDL-C<35 mg/dL. Patients were excluded if they had creatine phosphokinase (CPK)>3 times the upper limit of normal (ULN), a body mass index>35 kg/m^2, uncontrolled hypertension defined as sitting diastolic blood pressure>95 mm Hg whether taking or not taking an acceptable antihypertensive medication, uncontrolled diabetes mellitus (HbA1C>10%), hepatic dysfunction including asparate aminotransferase (AST) or alanine aminotransferase (ALT)>2 times ULN, renal dysfunction as defined by blood urea nitrogen (BUN) or creatinine>2 times ULN or uncontrolled hypothyroidism (thyroid stimulating hormone>1.5 times ULN). Also excluded were those with a history of gall bladder disease or pancreatitis, a history of consuming>14 alcoholic drinks per week, or those with a known hypersensitivity to lipid-altering drugs. Patients who had myocardial infarction, severe or unstable angina pectoris, coronary artery bypass graft or any other cardiovascular event requiring hospitalization within the last 3 months were also excluded from the study. Patients were not permitted any other lipid-altering drugs during the course of the study and if on prestudy lipid-altering drug therapy, were required to undergo an additional 4-week washout period. Use of isotretinoin, insulin, warfarin, immunosuppressive agents and intermittent systemic steroids were also prohibited.
All blood samples were collected following a 12-hour fast and analyzed using methods well known to one of skill in the art; these methods are described briefly as follows. Serum concentrations of cholesterol and triglycerides were measured using an enzymatic, colorimetric assay on a Hitachi 747 analyzer. The HDL-C samples were obtained from the supernatant after precipitation of the non-HDL lipoproteins using heparin and manganese chloride. Concentrations of CRP were measured using immunonephelometry on a nephelometer (Dade Behring, Marburg, Germany). The high sensitivity assay was used to measure CRP (Dade Behring, Marburg, Germany).
Within each TG stratum, an ANCOVA model with the effects of baseline CRP value, treatment, and site was used to analyze the percent change from baseline at the last visit for CRP by producing least squares (LS) means and p-values. p-values were unadjusted for multiplicity.
The Shapiro-Wilk Test for Normality and visual analysis of the residuals was used to determine if the assumption of normality was reasonable. Since CRP levels in all patients were not normally distributed, median percent changes are presented and Conover's nonparametric ANCOVA was used to analyze the ranked data.

CRP [3] = experiment: Randomized, double-blind, placebo-controlled dose-response study in hypercholesterolemic patients, 8-week treatment; CRP by high sensitivity assay (Example 17); format: in vivo, human; settings: mean of 6 and 8 week CRP level, placebo 9.4% increase
Procedure: A randomized, double-blind, placebo-controlled, parallel group, dose-response, multicenter study was conducted in hypercholesterolemic patients. The study had three periods: (1) a lipid medication wash-out visit if needed; (2) a qualifying period; and (3) an 8-week double-blind treatment period. The data discussed below is from a portion of a larger study.
Patients with significant cardiac, renal (creatinine>2.0 mg/dL) or liver (alanine aminotransferase [ALT] or aspartate aminotransferase [AST]>1.5× upper limit of normal [ULN]) disease, unexplained CPK levels>3×ULN, body mass index [BMI]>38 kg/m^2, triglycerides [TG]>400 mg/dL, or age>70 years are excluded as are women who are of childbearing potential, pregnant or lactating. A subset of eligible patients was randomized to receive placebo, 300, 600 or 900 mg/day of 6,6′-oxybis(2,2-dimethylhexanoic acid) calcium salt. Each of these groups had 13 to 15 patients.
Blood samples were collected at week −2, week −1, randomization and every two weeks thereafter. CRP levels were determined using a high sensitivity assay as in example 15. The mean of the 6 and the 8 week CRP level was calculated for each patient. Values>10 were not included in the analysis as these values are indicative of acute inflammation. For each dosage group the median of the mean values was determined. These median numbers were compared with median CRP values at baseline. Percent change from baseline in CRP levels due to the administration of 300, 600, 900 mg/day of 6,6′-oxybis(2,2-dimethylhexanoic acid) calcium salt or placebo is shown in FIG. 2. At the 300, 600 and 900 mg doses the levels of CRP were reduced by 26% (p=0.16 vs placebo), 42% (p<0.01 vs placebo) and 35% (p<0.01 vs placebo) respectively, compared to a 9.4% increase in the placebo group.

| SMILES | doses that effectively inhibited proinflammatory cytokine induced CRP production [1] | reduction in the CRP level (CRP [2]; 600 mg/day, <200 mg/dL TG stratum, not statistically significant) | CRP level reduced by (CRP [2]; 600 mg/day, ≧200 mg/dL TG stratum, p<0.05 vs Placebo) | levels of CRP reduced by (CRP [2]; <200 mg/dL TG stratum, p<0.05 vs Placebo) | levels of CRP reduced by (CRP [2]; ≧200 mg/dL TG stratum, p<0.001 vs placebo) | % change in CRP levels from base line (CRP [2]; patients TG < 200 mg/dL, 150 mg daily (QD) for 12 weeks) | % change in CRP levels from base line (CRP [2]; patients TG < 200 mg/dL, 300 mg daily (QD) for 12 weeks) | % change in CRP levels from base line (CRP [2]; patients TG < 200 mg/dL, 600 mg daily (QD) for 12 weeks, not statistically significant) | % change in CRP levels from base line (CRP [2]; patients TG < 200 mg/dL, 900 mg daily (QD) for 12 weeks, p < 0.05 versus placebo) | % change in CRP levels from base line (CRP [2]; patients TG ≧ 200 mg/dL, 150 mg daily (QD) for 12 weeks) | % change in CRP levels from base line (CRP [2]; patients TG ≧ 200 mg/dL, 300 mg daily (QD) for 12 weeks) | % change in CRP levels from base line (CRP [2]; patients TG ≧ 200 mg/dL, 600 mg daily (QD) for 12 weeks, p < 0.05 versus placebo) | % change in CRP levels from base line (CRP [2]; patients TG ≧ 200 mg/dL, 900 mg daily (QD) for 12 weeks, p < 0.001 versus placebo) | levels of CRP reduced by (median percent change from baseline) (CRP [3]; 300 mg/day, p=0.16 vs placebo) | levels of CRP reduced by (median percent change from baseline) (CRP [3]; 600 mg/day, p<0.01 vs placebo) | levels of CRP reduced by (median percent change from baseline) (CRP [3]; 900 mg/day, p<0.01 vs placebo) |
| --- | --- | --- | --- | --- | --- | --- | --- | --- | --- | --- | --- | --- | --- | --- | --- | --- |
| CC(C)(CCCCOCCCCC(C)(C)C(=O)O)C(=O)O [6,6′-oxybis(2,2-dimethylhexanoic acid), 6,6′-Oxybis-(2,2-dimethylhexanoic acid)] | ≥ 500 µM |  |  |  |  |  |  |  |  |  |  |  |  |  |  |  |
| CC(C)(CCCCOCCCCC(C)(C)C(=O)[O-])C(=O)[O-].[Ca+2] [6,6′-oxybis(2,2-dimethylhexanoic acid), calcium salt] |  | 58% | 29% | 54% | 57% | −14.3% | −16.0% | −58.3% | −53.8* % | −22.2% | −16.2% | −28.6* % | −57.1** % | 26% | 42% | 35% |
